Assay results reported in patent publication US10577362B2, “Substituted 2, 4-diamino-quinoline derivatives for use in the treatment of proliferative diseases” (GENOSCIENCE PHARMA, priority 2016, dated 2020).
Where a name gives a salt, the structure may show the parent alone. Read-outs that look alike come from different tables or passages of the source.

Experiments:
Type in all cases: cell-based, human
[1] = tested on: MOLM-14 (acute myeloid leukemia) cell line; assay: CellTiter-Glo luminescent cell viability assay, MOLM-14; settings: for EC50: MOLM-14 cell line, 72 h incubation, CellTiter-Glo, read-out: EC50, growth inhibition of MOLM-14; for viability at 4 µM: MOLM-14, compound at 4 μM; for viability at 4 µM / viability at 10 µM: 72 h; for viability at 10 µM: MOLM-14, compound at 10 μM
Experimental: (§1) All cell lines were maintained in medium containing 1% penicillin-streptomycin (Dutscher, P06-07100) and 10% Fetal Bovine Serum (Hyclone Dutscher, RZK35922) cultured at 37° C. with 5% CO2. HepG2 (hepatocellular carcinoma), cell line was cultured in Dulbecco's modified Eagle's medium low glucose (Gibco, 21885025), Huh7 (hepatocellular carcinoma), HCT-116 (colorectal carcinoma), PANC-1 (prancreatic carcinoma) and A375 (malignant melanoma) cell lines were cultured in Dulbecco's modified Eagle's medium (Dutscher, L0103). MOLM-14 (acute myeloid leukemia) cell line was maintained in MEM alpha medium (Gibco, 22561-021). 786-0 (renal adenocarcinoma) cell lines were maintained in RPMI 1640 medium (Dutscher, L0498).
(§2) Cell viability was measured using the CellTiter-Glo® luminescent cell viability assay as described by the manufacturer (Promega, Ref G7571) using an Infinite F200Pro luminometer (Tecan). Briefly, for adherent cells, cells were plated onto 96-well plates (white with clear bottom) in 90 μL of media per well and were allowed to grow overnight before the assay. For cells growing in suspension, cells were plated onto 96-well plates 1 h before the assay.
(§3) Compounds were resuspended in H2O or DMSO and added at different concentrations to each well, and cell cultures were incubated for 72 h. Each diluent (H2O or DMSO) were used as a control, and all compounds were tested in a constant percentage of H2O or DMSO. On the day of the reading, plates are equilibrated 30 min at room temperature before the addition of 100 μL of CellTiter-Glo® and luminescence was measured using an Infinite F200Pro (Tecan). % cell viability were expressed as a percentage of the signal obtained for cell cultures treated with diluent. EC50 values were determined as the dose of compound required to reduce luminescent values to 50% of the signal obtained for cell cultures treated with diluent. The experimental data were analyzed using a computer program, Graphpad Prism v5 (GraphPad Software, Inc. La Jolla, Calif.). All points were at least done in duplicate.

[2] = tested on: A375 (malignant melanoma) cell line; assay: CellTiter-Glo luminescent cell viability assay, A375; settings: for EC50: A375 cell line, 72 h incubation, CellTiter-Glo, read-out: EC50, growth inhibition of A375; for viability at 4 µM: A375, compound at 4 μM; for viability at 4 µM / viability at 10 µM: 72 h; for viability at 10 µM: A375, compound at 10 μM
Experimental: as §1, §2, §3

[3] = tested on: HCT-116 (colorectal carcinoma) cell line; assay: CellTiter-Glo luminescent cell viability assay, HCT-116; settings: for EC50: HCT-116 cell line, 72 h incubation, CellTiter-Glo, read-out: EC50, growth inhibition of HCT-116; for viability at 4 µM: HCT-116, compound at 4 μM; for viability at 4 µM / viability at 10 µM: 72 h; for viability at 10 µM: HCT-116, compound at 10 μM
Experimental: as §1, §2, §3

[4] = tested on: Huh7 (hepatocellular carcinoma) cell line; assay: CellTiter-Glo luminescent cell viability assay, Huh7; settings: for EC50: Huh7 cell line, 72 h incubation, CellTiter-Glo, read-out: EC50, growth inhibition of Huh7; for viability at 4 µM: Huh7, compound at 4 μM; for viability at 4 µM / viability at 10 µM: 72 h; for viability at 10 µM: Huh7, compound at 10 μM
Experimental: as §1, §2, §3

[5] = tested on: 786-O (renal adenocarcinoma) cell line; assay: CellTiter-Glo luminescent cell viability assay, 786-O; settings: for EC50: 786-O cell line, 72 h incubation, CellTiter-Glo, read-out: EC50, growth inhibition of 786-O; for viability at 4 µM / viability at 10 µM: 786-O, 72 h; for viability at 4 µM: compound at 4 μM; for viability at 10 µM: compound at 10 μM
Experimental: as §1, §2, §3

[6] = tested on: HepG2 (hepatocellular carcinoma) cell line; assay: CellTiter-Glo luminescent cell viability assay, HepG2; settings: for EC50: HepG2 cell line, 72 h incubation, CellTiter-Glo, read-out: EC50, growth inhibition of HepG2; for viability at 4 µM / viability at 10 µM: HepG2, HepG, 72 h; for viability at 4 µM: compound at 4 μM; for viability at 10 µM: compound at 10 μM
Experimental: as §1, §2, §3

| Compound | EC50 ([1]; Homo sapiens) [µM] | EC50 ([2]; Homo sapiens, A-375) [µM] | EC50 ([3]; Homo sapiens) [µM] | EC50 ([4]; Homo sapiens, Huh-7) [µM] | EC50 ([5]; Homo sapiens, 786-0) [µM] | EC50 ([6]; Homo sapiens) [µM] | other results |
| --- | --- | --- | --- | --- | --- | --- | --- |
| Cc1c(F)ccc2c(N3CCC(NC(C)(C)C)CC3)cc(NCc3ccc(Cl)cc3)nc12 [Compound 572, 2-(4-chlorobenzylamino)-4-[4-(tert-butylamino)piperidin-1-yl]-7-fluoro-8-methylquinoline] | 0.5 to 5 | 0.5 to 5 | 0.5 to 5 | 0.5 to 5 | 0.5 to 5 | 0.5 to 5 |  |
| CNC(=O)C1CCN(c2cc(NCc3ccc(Cl)cc3)nc3ccccc23)CC1 [Compound 1598, 2-(4-chlorobenzylamino)-4-[4-(methylcarbamoyl)piperidin-1-yl]quinoline hydrochloride] | 5 to 10 | 5 to 10 | 0.5 to 5 | 0.5 to 5 | 5 to 10 | 0.5 to 5 |  |
| CC(C)(C)NC(=O)C1CCN(c2cc(NCc3ccc(Cl)cc3)nc3ccccc23)CC1 [Compound 1604, 2-(4-chlorobenzylamino)-4-[4-(tert-butylaminocarbonyl)-piperidin-1-yl]-quinoline hydrochloride] | 5 to 10 | 5 to 10 | 5 to 10 | 0.5 to 5 | 5 to 10 | 0.5 to 5 |  |
| CN1CCN(C(=O)C2CCN(c3cc(NCc4ccc(Cl)cc4)nc4ccccc34)CC2)CC1 [Compound 1656, 2-(4-chlorobenzylamino)-4-[4-(4-methylpiperazine-1-carbonyl)-piperidin-1-yl]-quinoline hydrochloride] | 0.5 to 5 | 0.5 to 5 | 0.5 to 5 | 0.5 to 5 | 0.5 to 5 | 0.5 to 5 |  |
| OC[C@@H]1CCCN1c1cc(NCc2ccc(Cl)cc2)nc2ccccc12 [Compound 2308, (2S) 2-(4-chlorobenzylamino)-4-[2-(hydroxymethyl)pyrrolidin-1-yl]quinoline, hydrochloride] |  |  |  |  |  |  | EC50 [1]: 0.5 to 5 µM; EC50 [2]: 0.5 to 5 µM; EC50 [3]: 5 to 10 µM; EC50 [4]: 0.5 to 5 µM; EC50 [5]: 5 to 10 µM; EC50 [6]: 0.5 to 5 µM |
| COC[C@@H]1CCCN1c1cc(NCc2ccc(Cl)cc2)nc2ccccc12 [Compound 2310, (2S) 2-(4-chlorobenzylamino)-4-[2-(methoxymethyl)pyrrolidin-1-yl]quinoline, hydrochloride] | 0.5 to 5 | 0.5 to 5 | 0.5 to 5 | 0.5 to 5 | 5 to 10 | 0.5 to 5 |  |
| OC[C@H]1CCCN1c1cc(NCc2ccc(Cl)cc2)nc2ccccc12 [Compound 2380, (2R)-2-(4-chlorobenzylamino)-4-[2-(hydroxymethyl)-pyrrolidin-1-yl]-quinoline hydrochloride] | 0.5 to 5 | 0.5 to 5 | 0.5 to 5 | 0.5 to 5 | 5 to 10 | 0.5 to 5 |  |
| CC(C)OC1CCN(c2cc(NCc3ccc(Cl)cc3)nc3ccccc23)CC1 [Compound 2918, 2-(4-chlorobenzylamino)-4-[4-(iso-propoxy)-piperidin-1-yl]-quinoline hydrochloride] | 0.5 to 5 | 5 to 10 | 0.5 to 5 | 5 to 10 | 5 to 10 | 0.5 to 5 |  |
| Clc1ccc(CNc2cc(N3CCC(Oc4ccccc4)CC3)c3ccccc3n2)cc1 [Compound 2940, 2-(4-chlorobenzylamino)-4-(4-phenoxypiperidin-1-yl)-quinoline hydrochloride] | 0.5 to 5 | 5 to 10 | 0.5 to 5 | 5 to 10 | 0.5 to 5 | 0.5 to 5 |  |
| N#Cc1c(NCc2ccc(Cl)cc2)nc2ccccc2c1N1CCC(Oc2ccc(F)cc2)CC1 [Compound 2942CN, 2-(4-chlorobenzylamino)-3-cyano-4-[4-(4-fluorophenoxy)piperidin-1-yl]quinoline] |  |  |  |  |  |  | viability at 4 µM ([1]; Homo sapiens): 98.2%; viability at 10 µM ([1]; Homo sapiens): 88.1%; viability at 4 µM ([2]; Homo sapiens, A-375): 101%; viability at 10 µM ([2]; Homo sapiens, A-375): 94.9%; viability at 4 µM ([3]; Homo sapiens): 91%; viability at 10 µM ([3]; Homo sapiens): 75.1%; viability at 4 µM ([4]; Homo sapiens, Huh-7): 94.3%; viability at 10 µM ([4]; Homo sapiens, Huh-7): 87.9%; viability at 4 µM ([5]; Homo sapiens, 786-0): 87.7%; viability at 10 µM ([5]; Homo sapiens, 786-0): 81.3%; viability at 4 µM ([6]; Homo sapiens): 99.1%; viability at 10 µM ([6]; Homo sapiens): 75.3% |
| Cc1cccc(OC2CCN(c3cc(NCc4ccc(Cl)cc4)nc4ccccc34)CC2)c1 [Compound 2946, 2-(4-chlorobenzylamino)-4-[4-(m-tolyloxy)piperidin-1-yl]quinoline hydrochloride] | 5 to 10 | 0.5 to 5 | 5 to 10 | 5 to 10 | 5 to 10 | 5 to 10 |  |
| Clc1ccc(CNc2cc(N3CCC(Oc4ccncc4)CC3)c3ccccc3n2)cc1 [Compound 2950, 2-(4-chlorobenzylamino)-4-[4-(pyridin-4-yloxy)piperidin-1-yl]quinoline hydrochloride] | 0.5 to 5 | 0.5 to 5 | 0.5 to 5 | 0.5 to 5 | 0.5 to 5 | 0.5 to 5 |  |
| Clc1ccc(CNc2cc(N3CCC(Oc4cnccn4)CC3)c3ccccc3n2)cc1 [Compound 2958, 2-(4-chlorobenzylamino)-4-[4-(pyrazin-2-yloxy)piperidin-1-yl]quinoline hydrochloride] | 0.5 to 5 | 5 to 10 | 5 to 10 | 0.5 to 5 | 5 to 10 | 0.5 to 5 |  |
| Cc1nccnc1OC1CCN(c2c(C#N)c(NCc3ccc(Cl)cc3)nc3ccccc23)CC1 [Compound 2970CN, 2-(4-chlorobenzylamino)-3-cyano-4-{4-[(3-methylpyrazin-2-yl)oxy]piperidin-1-yl}quinoline] |  |  |  |  |  |  | viability at 4 µM ([1]; Homo sapiens): 92%; viability at 10 µM ([1]; Homo sapiens): 61.2%; viability at 4 µM ([2]; Homo sapiens, A-375): 91.9%; viability at 10 µM ([2]; Homo sapiens, A-375): 80.8%; viability at 4 µM ([3]; Homo sapiens): 70.5%; viability at 10 µM ([3]; Homo sapiens): 47%; viability at 4 µM ([4]; Homo sapiens, Huh-7): 63.7%; viability at 10 µM ([4]; Homo sapiens, Huh-7): 53.4%; viability at 4 µM ([5]; Homo sapiens, 786-0): 89.4%; viability at 10 µM ([5]; Homo sapiens, 786-0): 79.8%; viability at 4 µM ([6]; Homo sapiens): 87.8%; viability at 10 µM ([6]; Homo sapiens): 63.3% |
| Cc1cc(OC2CCN(c3c(C#N)c(NCc4ccc(Cl)cc4)nc4ccccc34)CC2)no1 [Compound 2978CN, 2-(4-chlorobenzylamino)-3-cyano-4-{4-[(5-methylisoxazol-3-yl)oxy]piperidin-1-yl}quinoline] |  |  |  |  |  |  | viability at 4 µM ([1]; Homo sapiens): 115%; viability at 10 µM ([1]; Homo sapiens): 77.5%; viability at 4 µM ([2]; Homo sapiens, A-375): 93.1%; viability at 10 µM ([2]; Homo sapiens, A-375): 86.8%; viability at 4 µM ([3]; Homo sapiens): 88.2%; viability at 10 µM ([3]; Homo sapiens): 50.1%; viability at 4 µM ([4]; Homo sapiens, Huh-7): 87%; viability at 10 µM ([4]; Homo sapiens, Huh-7): 74.2%; viability at 4 µM ([5]; Homo sapiens, 786-0): 96.9%; viability at 10 µM ([5]; Homo sapiens, 786-0): 89.3%; viability at 4 µM ([6]; Homo sapiens): 94.5%; viability at 10 µM ([6]; Homo sapiens): 78.1% |
| O[C@@H]1CCN(c2cc(NCc3ccc(Cl)cc3)nc3ccccc23)C1 [Compound 2988, (3R) 2-(4-chlorobenzylamino)-4-(3-hydroxypyrrolidin-1-yl)quinoline hydrochloride] | 0.5 to 5 | 0.5 to 5 | 5 to 10 | 0.5 to 5 | 0.5 to 5 | 0.5 to 5 |  |
